# Test results from US9113629B2, “4-amino-6-(4-substituted-phenyl)-picolinates and 6-amino-2-(4-substituted-phenyl)-pyrimidine-4-carboxylates and their use as herbicides” (DOW AGROSCIENCES LLC, priority 2013, dated 2015).
# Read-outs that look alike come from different tables or passages of the source.
# Experiments:
# [1] = tested on: Key Broadleaf Weed and Crop Species; assay: Post-emergent Test II herbicidal activity (Table 5); type: in vivo; settings: post-emergence, 336 h, post-emergent, 14 days after application; for pest or weed control at 70 g/ha: 70 g ai/ha; for pest or weed control at 140 g/ha: 140 g ai/ha
# In short: (§1)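 Percent injury, 0 (none) to 100 (complete kill), was judged visually 14 d after spraying young plants at the first or second true leaf stage with compound in an acetone/DMSO aqueous carrier at 187 L/ha. Plants were kept in a greenhouse at 23–29 °C by day.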
# [2] = tested on: Key Grass and Sedge Weeds as well as Grass Crops; assay: Post-emergent Test II herbicidal activity (Table 6); type: in vivo; settings: post-emergence, 336 h; for pest or weed control at 70 g/ha: application rate 70 g ai/ha; for pest or weed control at 140 g/ha: application rate 140 g ai/ha
# In short: as §1
# [3] = ABUTH: velvetleaf (Abutilon theophrasti), read-out: Visual Growth Reduction (%) 14 Days After Application ABUTH
# [4] = AMARE: redroot pigweed (Amaranthus retroflexus), read-out: Visual Growth Reduction (%) 14 Days After Application AMARE
# [5] = BRSNN: oilseed-rape, canola (Brassica napus), read-out: Visual Growth Reduction (%) 14 Days After Application BRSNN
# [6] = CHEAL: lambsquarters (Chenopodium album), read-out: Visual Growth Reduction (%) 14 Days After Application CHEAL
# [7] = EPHHL: wild poinsettia (Euphorbia heterophylla), read-out: Visual Growth Reduction (%) 14 Days After Application EPHHL
# [8] = HELAN: sunflower (Helianthus annuus), read-out: Visual Growth Reduction (%) 14 Days After Application HELAN
# [9] = VIOTR: wild pansy (Viola tricolor), read-out: Visual Growth Reduction (%) 14 Days After Application VIOTR
# [10] = Triticum aestivum, TRZSS (wheat), read-out: Visual Growth Reduction (%) 14 Days After Application, TRZSS
# [11] = CYPES: yellow nutsedge (Cyperus esculentus), read-out: Visual Growth Reduction (%) 14 Days After Application, CYPES
# [12] = DIGSA: crabgrass (Digitaria sanguinalis), read-out: Visual Growth Reduction (%) 14 Days After Application, DIGSA
# [13] = ECHCG: barnyardgrass (Echinochloa crus-galli), read-out: Visual Growth Reduction (%) 14 Days After Application, ECHCG
# [14] = ORYSA: rice (Oryza sativa), read-out: Visual Growth Reduction (%) 14 Days After Application, ORYSA
# [15] = SETFA: giant foxtail (Setaria faberi), read-out: Visual Growth Reduction (%) 14 Days After Application, SETFA
# [16] = SORVU: grain sorghum (Sorghum vulgare), read-out: Visual Growth Reduction (%) 14 Days After Application, SORVU
# [17] = ZEAMX: maize, corn (Zea mays), read-out: Visual Growth Reduction (%) 14 Days After Application, ZEAMX
smiles,measurement,setting,value
COc1c(N)nc(-c2cc(F)c(I)cc2F)nc1C(=O)O [Compound 119],pest or weed control at 70 g/ha,[1]; [3],75 to 84%
same,pest or weed control at 140 g/ha,[1]; [3],85 to 94%
same,pest or weed control at 70 g/ha,[1]; [4],85 to 94%
same,pest or weed control at 140 g/ha,[1]; [4],95 to 100%
same,pest or weed control at 70 g/ha,[1]; [5],95 to 100%
same,pest or weed control at 140 g/ha,[1]; [5],95 to 100%
same,pest or weed control at 70 g/ha,[1]; [6],95 to 100%
same,pest or weed control at 140 g/ha,[1]; [6],95 to 100%
same,pest or weed control at 70 g/ha,[1]; [7],95 to 100%
same,pest or weed control at 140 g/ha,[1]; [7],95 to 100%
same,pest or weed control at 70 g/ha,[1]; [8],85 to 94%
same,pest or weed control at 140 g/ha,[1]; [8],85 to 94%
same,pest or weed control at 70 g/ha,[1]; [9],0 to 29%
same,pest or weed control at 140 g/ha,[1]; [9],0 to 29%
same,pest or weed control at 70 g/ha,[2]; [10],45 to 59%
same,pest or weed control at 140 g/ha,[2]; [10],60 to 74%
same,pest or weed control at 70 g/ha,[2]; [11],45 to 59%
same,pest or weed control at 140 g/ha,[2]; [11],45 to 59%
same,pest or weed control at 70 g/ha,[2]; [12],45 to 59%
same,pest or weed control at 140 g/ha,[2]; [12],60 to 74%
same,pest or weed control at 70 g/ha,[2]; [13],85 to 94%
same,pest or weed control at 140 g/ha,[2]; [13],85 to 94%
same,pest or weed control at 70 g/ha,[2]; [14],0 to 29%
same,pest or weed control at 140 g/ha,[2]; [14],0 to 29%
same,pest or weed control at 70 g/ha,[2]; [15],60 to 74%
same,pest or weed control at 140 g/ha,[2]; [15],60 to 74%
same,pest or weed control at 70 g/ha,[2]; [16],60 to 74%
same,pest or weed control at 140 g/ha,[2]; [16],60 to 74%
same,pest or weed control at 70 g/ha,[2]; [17],60 to 74%
same,pest or weed control at 140 g/ha,[2]; [17],60 to 74%
Nc1cc(-c2ccc(I)cc2F)nc(C(=O)O)c1Cl [Compound 124],pest or weed control at 70 g/ha,[1]; [3],85 to 94%
same,pest or weed control at 140 g/ha,[1]; [3],85 to 94%
same,pest or weed control at 70 g/ha,[1]; [4],95 to 100%
same,pest or weed control at 140 g/ha,[1]; [4],95 to 100%
same,pest or weed control at 70 g/ha,[1]; [5],95 to 100%
same,pest or weed control at 140 g/ha,[1]; [5],95 to 100%
same,pest or weed control at 70 g/ha,[1]; [6],95 to 100%
same,pest or weed control at 140 g/ha,[1]; [6],95 to 100%
same,pest or weed control at 70 g/ha,[1]; [7],95 to 100%
same,pest or weed control at 140 g/ha,[1]; [7],95 to 100%
same,pest or weed control at 70 g/ha,[1]; [8],85 to 94%
same,pest or weed control at 140 g/ha,[1]; [8],85 to 94%
same,pest or weed control at 70 g/ha,[1]; [9],95 to 100%
same,pest or weed control at 140 g/ha,[1]; [9],95 to 100%
same,pest or weed control at 70 g/ha,[2]; [10],45 to 59%
same,pest or weed control at 140 g/ha,[2]; [10],60 to 74%
same,pest or weed control at 70 g/ha,[2]; [11],95 to 100%
same,pest or weed control at 140 g/ha,[2]; [11],95 to 100%
same,pest or weed control at 70 g/ha,[2]; [12],75 to 84%
same,pest or weed control at 140 g/ha,[2]; [12],85 to 94%
same,pest or weed control at 70 g/ha,[2]; [13],85 to 94%
same,pest or weed control at 140 g/ha,[2]; [13],85 to 94%
same,pest or weed control at 70 g/ha,[2]; [14],30 to 44%
same,pest or weed control at 140 g/ha,[2]; [14],30 to 44%
same,pest or weed control at 70 g/ha,[2]; [15],60 to 74%
same,pest or weed control at 140 g/ha,[2]; [15],95 to 100%
same,pest or weed control at 70 g/ha,[2]; [16],95 to 100%
same,pest or weed control at 140 g/ha,[2]; [16],95 to 100%
same,pest or weed control at 70 g/ha,[2]; [17],75 to 84%
same,pest or weed control at 140 g/ha,[2]; [17],75 to 84%
Nc1c(Cl)c(C(=O)O)nc(-c2ccc(Br)cc2)c1Cl [Compound 125],pest or weed control at 70 g/ha,[1]; [3],95 to 100%
same,pest or weed control at 140 g/ha,[1]; [3],95 to 100%
same,pest or weed control at 70 g/ha,[1]; [4],95 to 100%
same,pest or weed control at 140 g/ha,[1]; [4],95 to 100%
same,pest or weed control at 70 g/ha,[1]; [5],95 to 100%
same,pest or weed control at 140 g/ha,[1]; [5],95 to 100%
same,pest or weed control at 70 g/ha,[1]; [6],95 to 100%
same,pest or weed control at 140 g/ha,[1]; [6],95 to 100%
same,pest or weed control at 70 g/ha,[1]; [7],30 to 44%
same,pest or weed control at 140 g/ha,[1]; [7],45 to 59%
same,pest or weed control at 70 g/ha,[1]; [8],95 to 100%
same,pest or weed control at 140 g/ha,[1]; [8],95 to 100%
same,pest or weed control at 70 g/ha,[1]; [9],0 to 29%
same,pest or weed control at 140 g/ha,[1]; [9],0 to 29%
same,pest or weed control at 70 g/ha,[2]; [10],60 to 74%
same,pest or weed control at 140 g/ha,[2]; [10],60 to 74%
same,pest or weed control at 70 g/ha,[2]; [11],95 to 100%
same,pest or weed control at 140 g/ha,[2]; [11],95 to 100%
same,pest or weed control at 70 g/ha,[2]; [12],60 to 74%
same,pest or weed control at 140 g/ha,[2]; [12],60 to 74%
same,pest or weed control at 70 g/ha,[2]; [14],0 to 29%
same,pest or weed control at 140 g/ha,[2]; [14],0 to 29%
same,pest or weed control at 70 g/ha,[2]; [15],85 to 94%
same,pest or weed control at 140 g/ha,[2]; [15],95 to 100%
same,pest or weed control at 70 g/ha,[2]; [16],60 to 74%
same,pest or weed control at 140 g/ha,[2]; [16],85 to 94%
same,pest or weed control at 70 g/ha,[2]; [17],60 to 74%
same,pest or weed control at 140 g/ha,[2]; [17],60 to 74%
